Literature values in US20250152507A1, “SUBLINGUAL COMPOSITIONS FOR ERECTILE DYSFUNCTION” (Woody's Medical LLC, priority 2023, published 2025).

System: men with mild ED
Details: reported in C. McMahon et al., BMJ 2006

## CN1CCc2cccc3c2[C@H]1Cc1ccc(O)c(O)c1-3 [Apomorphine, apomorphine]
  effect in men with mild ED: only a small effect
